Entries after “also recorded” stand apart in the source; their conditions may differ. Where two headings read alike, the source gives them in different places. Marks after values point to notes of the source that are not given here.
What was measured:
DPP-IV enzyme = molecular target: T1, DPP-IV enzyme (Homo sapiens, UniProt P27487); experiment: In vitro DPP-IV inhibition assay (Biovision kit, fluorescence); type: biochemical; conditions: for % Inhibition @ 100 nM / inhibition at 0.1 µM: compound at 100 nM; for DPP-4 enzyme inhibition activity, in words: SAR discussion; for % Inhibition (values marked *: inhibition at 1000 nM): compound at 1000 nM
T1 construct: purchased Biovision (Milpitas, Calif., USA)
T1 sequence (P27487 whole entry, species assumed): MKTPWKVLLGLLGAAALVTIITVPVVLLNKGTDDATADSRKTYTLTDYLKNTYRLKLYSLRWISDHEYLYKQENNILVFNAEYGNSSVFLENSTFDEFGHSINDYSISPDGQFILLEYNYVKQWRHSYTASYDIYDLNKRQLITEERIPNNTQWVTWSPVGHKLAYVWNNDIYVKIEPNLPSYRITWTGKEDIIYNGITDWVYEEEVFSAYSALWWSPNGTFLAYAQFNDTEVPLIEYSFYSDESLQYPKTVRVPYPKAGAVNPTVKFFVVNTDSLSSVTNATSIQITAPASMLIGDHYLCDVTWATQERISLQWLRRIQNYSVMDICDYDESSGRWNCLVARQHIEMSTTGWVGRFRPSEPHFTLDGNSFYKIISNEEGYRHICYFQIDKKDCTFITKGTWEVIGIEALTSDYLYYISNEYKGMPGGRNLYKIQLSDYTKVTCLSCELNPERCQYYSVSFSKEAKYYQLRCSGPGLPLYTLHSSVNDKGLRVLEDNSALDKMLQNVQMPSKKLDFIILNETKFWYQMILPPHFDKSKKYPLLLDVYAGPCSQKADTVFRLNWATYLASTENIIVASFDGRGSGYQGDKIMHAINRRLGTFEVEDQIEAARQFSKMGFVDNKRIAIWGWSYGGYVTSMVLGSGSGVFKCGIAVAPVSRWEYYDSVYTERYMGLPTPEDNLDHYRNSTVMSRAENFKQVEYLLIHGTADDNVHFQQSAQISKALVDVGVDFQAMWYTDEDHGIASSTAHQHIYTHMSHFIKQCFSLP
Experimental: DPP-IV inhibition assay was conducted using a kit purchased from Biovision (Milpitas, Calif., USA). Briefly, DPP-IV enzyme was diluted with Tris buffer and pipetted 50 μl into glass mini-cells. […] Finally a volume of 25 μl of DPP-IV substrate was added into each tube. The fluorescence generated from hydrolysis of the substrate was read at Ex/Em=360/460 nm using Modulus® single tube multimode reader (Promega, USA). Baseline fluorescence was recorded before incubation (R1) and 20 min after incubation (R2).
The standard DPP-IV inhibitor drug sitagliptin employed as positive control. […] Sigmoidal concentration-response curves for DPP-IV % inhibition versus log concentration were plotted using Graphpad prism software, version 5.00 (GraphPad Software, Inc. La Jolla, Calif., USA).

diabetic mice [1] = experiment: Oral glucose tolerance test (OGTT) after multiple doses (6 days) in diabetic mice; type: in vivo; conditions: for R.P. to Vildagliptin (6 Days): Table 6, relative potency, B.G. = blood glucose; for AUC % change from diabetic control / AUC Δ from diabetic control / Relative potency to vildagliptin / AUC of blood glucose in OGTT (X, mean): 50 mg/kg oral for 6 days; for Relative potency to vildagliptin: OGTT AUC; for AUC of blood glucose in OGTT (X, mean): glucose load 2 g/kg 2 h after 6th dose, AUC 0-120 min
Experimental: (§1) The Biochemical and Research Ethical Committee of King Abulaziz University (Jeddah, Saudi Arabia), in accordance with the NIH guidelines, approved all procedures, and the animals received human care during the experimental period. Experiments were carried out using adult male Swiss albino mice (SWR), of 8-9 weeks age and 30-35 g weight. Animals were purchased from the animal house of the King Fahed Medical Research center (KFMRC), Jeddah, Saudi Arabia. Mice were kept at a constant temperature of 24-25° C. and were subjected to a controlled 12 h light-dark cycle; they had free access to water and pelleted diet ad libitum.
(§2) Nicotinamide (210 mg/kg b.w.), dissolved in saline, was injected intraperitoneally 15 min before the intraperitoneal injection of Streptozotocin (STZ) (Sigma, 180 mg/kg b.w.), which was freshly prepared in citrate buffer (pH 4.5). Control animals received both vehicles. During the experimental period, animals' food intake and body weight gain were monitored once a week.
(§3) On the same groups that received the single dose treatment, the tested compounds were given daily by oral gavage for six consecutive days. On day 6, the overnight fasted diabetic mice were pretreated with the 6th oral dose of the tested compounds. Two hours later, an oral glucose was loaded (2 g/kg/10 ml b.w.). Blood glucose levels were determined using the Accu-check Go®. Samples were collected just before drug administration (Fasting Blood glucose), then 2 h after drug treatment and before glucose administration. Samples collection was continued at 20, 40, 60 and 120 min intervals after glucose loading.

diabetic mice [2] = experiment: Oral glucose tolerance test (OGTT) after single dose in diabetic mice; type: in vivo; conditions: for R.P. to Vildagliptin (Single Dose): Table 6, relative potency, B.G. = blood glucose; for AUC of blood glucose in OGTT (X, mean): glucose load 2 g/kg 2 h later, AUC 0-120 min
Experimental: as §1, §2
Oral glucose tolerance tests were performed in 14 h overnight fasted diabetic mice that were pretreated with a single oral dose of the tested compounds. […] The drugs were suspended in carboxymethyl cellulose (CMC)-Na (1% in distilled water) and the dosing volume was adjusted at 10 mL/kg body weight of the mouse. Then an oral glucose load was administered (2 g/kg) 2 h after drug treatment. Blood glucose levels were determined using the Accu-check Go® (Roche Diagnostics, Michigan, USA). Samples were collected just before drug administration (fasting blood glucose), then at 2 h after drug treatment (immediately before glucose loading). Then blood sample collection was continued at 20, 40, 60 and 120 min intervals after glucose loading.
Animals were distributed between three categories of groups. Each group is composed of six animals (n=6) […] as follows:
Category 1: One group of animals were 14 h overnight-fasted normoglycemic mice and vehicle-treated (1% CMC-Na) at a dose of 10 ml/kg.
Category 2: Another group of animals was overnight fasted diabetic mice received the vehicle (1% CMC-Na) at a dosing volume of 10 ml/kg and served as a negative control.
Category 4: Animals of these groups were overnight fasted diabetic mice received the tested compounds at a dose of 50 mg/kg in 1% CMC (volume of 10 ml/kg).

diabetic mice [3] = experiment: Fasting blood glucose of diabetic mice treated daily for 6 consecutive days; type: in vivo; conditions: 50 mg/kg oral daily
Experimental: as §1, §2, §3
The oral glucose tolerance test (OGTT) was performed over six days on diabetic mice. The glucose level was monitored daily (Table 3). The results were analyzed for activities after a single dose (Table 4) and after the 6th dose of the drug (Table 5).

[4] = Table 2, head prints no unit, nM per Table 6, read-out: IC50
[5] = read-out: enzymatic inhibition value / inhibitory activity (IC50)

| SMILES | IC50 (DPP-IV enzyme; [4]) | IC50 (DPP-IV enzyme; Table 6, read-out: IC50) | % Inhibition @ 100 nM (DPP-IV enzyme) | R.P. to Vildagliptin (6 Days) (diabetic mice [1]) | R.P. to Vildagliptin (Single Dose) (diabetic mice [2]) | DPP-4 enzyme inhibition activity, in words (DPP-IV enzyme) | % Inhibition (values marked *: inhibition at 1000 nM) (DPP-IV enzyme) | other results |
| --- | --- | --- | --- | --- | --- | --- | --- | --- |
| Cc1ccccc1NC(=O)CNC12CC3CC(CC(O)(C3)C1)C2 [Compound 2] | 10.1 nM | 10.1 nM | 86.82% | 1.2 | 0.42 | – | – | IC50 (DPP-IV enzyme; [5]): 10.3 nM |
| Cc1ccc(NC(=O)CNC23CC4CC(CC(O)(C4)C2)C3)cc1 [Compound 3] | – | – | 28.38% | – | – | much weaker enzyme inhibition activities | – | – |
| COc1ccccc1NC(=O)CNC12CC3CC(CC(O)(C3)C1)C2 [Compound 5] | 94.1 nM | 94.1 nM | – | 0.26 | 0.66 | weakened the enzyme inhibition activities | 93.48* % | – |
| O=C(CNC12CC3CC(CC(O)(C3)C1)C2)Nc1ccccc1C(F)(F)F [Compound 14] | 41.3 nM | 41.3 nM | 84.81% | Increased B.G. | 0.12 | generally weak | – | – |
| O=C(CNC12CC3CC(CC(O)(C3)C1)C2)Nc1cccc(C(F)(F)F)c1 [Compound 15] | 116 nM | > 100 nM | – | 0.72 | 1.18 | did not show good activity; also recorded: generally weak | 97.81* % | AUC % change from diabetic control (diabetic mice [1]): −26.07%; AUC Δ from diabetic control (diabetic mice [1]): 13729 mg·min/dL; Relative potency to vildagliptin (diabetic mice [1]): 0.72; AUC of blood glucose in OGTT (X, mean) (diabetic mice [1]): 38926* mg · dL^−1 · min; Fasting blood glucose level, Day 1 (diabetic mice [3]): 167.20 ± mg/dL; Fasting blood glucose level, Day 2 (diabetic mice [3]): 87.80 ± mg/dL; Fasting blood glucose level, Day 3 (diabetic mice [3]): 177.60 ± mg/dL; Fasting blood glucose level, Day 4 (diabetic mice [3]): 166.80 ± mg/dL; Fasting blood glucose level, Day 5 (diabetic mice [3]): 175.80 ± mg/dL; Fasting blood glucose level, Day 6 (diabetic mice [3]): 161.80 mg/dL; AUC % change from diabetic control (diabetic mice [2]; single oral dose 50 mg/kg): −39.13%; AUC Δ from diabetic control (diabetic mice [2]; single oral dose 50 mg/kg): 19985 mg·min/dL; AUC of blood glucose in OGTT (X, mean) (diabetic mice [2]; single oral dose 50 mg/kg): 31080* mg · dL^−1 · min |
| COC(=O)c1ccccc1NC(=O)CNC12CC3CC(CC(O)(C3)C1)C2 [Compound 16] | – | – | 45.61% | – | – | weakened the enzyme inhibition activities | – | AUC % change from diabetic control (diabetic mice [1]): −52.53%; AUC Δ from diabetic control (diabetic mice [1]): 28183 mg·min/dL; Relative potency to vildagliptin (diabetic mice [1]): 1.45; AUC of blood glucose in OGTT (X, mean) (diabetic mice [1]): 24472* mg · dL^−1 · min; Fasting blood glucose level, Day 1 (diabetic mice [3]): 174.00 mg/dL; Fasting blood glucose level, Day 2 (diabetic mice [3]): 93.80 ± mg/dL; Fasting blood glucose level, Day 3 (diabetic mice [3]): 158.40 ± mg/dL; Fasting blood glucose level, Day 4 (diabetic mice [3]): 127.40 ± mg/dL; Fasting blood glucose level, Day 5 (diabetic mice [3]): 171.00 ± mg/dL; Fasting blood glucose level, Day 6 (diabetic mice [3]): 107.60 ± mg/dL; AUC % change from diabetic control (diabetic mice [2]; single oral dose 50 mg/kg): −39.51%; AUC Δ from diabetic control (diabetic mice [2]; single oral dose 50 mg/kg): 20179 mg·min/dL; Relative potency to vildagliptin (diabetic mice [2]; single oral dose 50 mg/kg, OGTT AUC): 1.19; AUC of blood glucose in OGTT (X, mean) (diabetic mice [2]; single oral dose 50 mg/kg): 30886* mg · dL^−1 · min |
| O=C(CNC12CC3CC(CC(O)(C3)C1)C2)Nc1cccc(O)c1 [Compound 17] | 212 nM | > 100 nM | 44.44% | 1.42 | 0.26 | very weak activity | – | – |
| N#Cc1ccccc1NC(=O)CNC12CC3CC(CC(O)(C3)C1)C2 [Compound 19] | 267 nM | > 100 nM | – | 0.87 | 0.23 | exception to nitrile performance | 99.06* % | – |
| N#Cc1cccc(NC(=O)CNC23CC4CC(CC(O)(C4)C2)C3)c1 [Compound 26, N-(3-cyanophenyl)-2-[(3-hydroxyadamantan-1-yl)amino]acetamide] | 0.58 nM | 0.58 nM | – | 1.3 | 0.32 | high affinity towards the enzyme | – | DPP-4 enzyme inhibition activity, in words (DPP-IV enzyme; listed as GLP-26): high level of potency both in vitro and in vivo; inhibition at 0.1 µM (DPP-IV enzyme): 83.1%; IC50 (DPP-IV enzyme; [5]): < 1 nM |
| O=C(CNC12CC3CC(CC(O)(C3)C1)C2)Nc1ccccc1F [Compound 27] | – | – | – | – | – | generally weak | 67.04* % | – |
| Cc1cccc(NC(=O)CNC23CC4CC(CC(O)(C4)C2)C3)c1 [Compound 30] | – | – | – | – | – | much weaker enzyme inhibition activities | 70.92* % | – |
| O=C(CNC12CC3CC(CC(O)(C3)C1)C2)Nc1cccc(F)c1 [Compound 31] | 62.3 nM | 62.3 nM | 56.23% | 0.85 | 0.37 | generally weak | – | – |
| O=C(CNC12CC3CC(CC(O)(C3)C1)C2)Nc1ccc(Cl)cc1 [Compound 43] | 102 nM | > 100 nM | 51.64% | 1.39 | 0.26 | weak inhibitors at high concentration | – | – |
| O=C(CNC12CC3CC(CC(O)(C3)C1)C2)NCc1ccccc1 [Compound 53] | 7.41 nM | – | – | – | – | – | – | inhibition at 0.1 µM (DPP-IV enzyme): 86.8% |
| O=C(CNC12CC3CC(CC(O)(C3)C1)C2)NCc1ccc(F)cc1 [Compound 54] | 87.1 nM | 87.1 nM | 57.12% | Increased B.G. | Increased B.G. | – | – | – |
| O=C(CNC12CC3CC(CC(O)(C3)C1)C2)NCCc1ccccc1 [Compound 59] | – | – | – | 0.83 | 0.52 | – | 67.04* % | – |
| O=C(CNC12CC3CC(CC(O)(C3)C1)C2)Nc1ccc(O)cc1 [Compound 60] | – | – | – | 0.67 | 0.67 | very weak activity | 20.11* % | – |
| O=C(CNC12CC3CC(CC(C3)C1)C2)Nc1cc(Cl)ccn1 [Compound 117] | 5.42 nM | – | 83.14% | – | – | high DPP-4 inhibition; also recorded: best functionality in enzyme inhibition activity | – | – |
| Cc1cccc(C)c1NC(=O)CNC12CC3CC(CC(C3)C1)C2 [Compound 120] | – | – | – | – | – | much weaker enzyme inhibition activities | 62.84* % | – |
| N#C[C@@H]1CCCN1C(=O)CNC12CC3CC(CC(O)(C3)C1)C2 [Vildagliptin, reference compound] | – | – | – | 1 | – | – | – | Fasting blood glucose level, Day 1 (diabetic mice [3]): 205.20 ± mg/dL; Fasting blood glucose level, Day 2 (diabetic mice [3]): 119.40 ± mg/dL; Fasting blood glucose level, Day 3 (diabetic mice [3]): 169.20 ± mg/dL; Fasting blood glucose level, Day 4 (diabetic mice [3]): 197.80 mg/dL; Fasting blood glucose level, Day 5 (diabetic mice [3]): 244.60 mg/dL; Fasting blood glucose level, Day 6 (diabetic mice [3]): 165.00 mg/dL |

Reference: patent US10683267B1, “Antidiabetic compounds” (King Abdulaziz University, priority 2019, dated 2020)
